In US6387881B1, “Inhibitors and substrates of thrombin” (priority 1992, dated 2002):

System: not listed separately
Experiment: Peripheral blood pressure after intravenous dose
Assay type: in vivo, New Zealand white rabbits
Conditions: 4 mg/kg iv. dose
Source text: […] R. May, C. M. Hero, K. D. Butler, C. P. Page, JOURNAL OF PHARMACOLOGICAL METHODS, 24, pp 1-35, 1990. Peripheral blood pressure was monitored by a pressure sensor in the carotid artery.

| Molecule | BLOOD PRESSURE Δ% of NORM |
| --- | --- |
| CC1(C)OB(C(Cc2ccccc2)NC(=O)C2CCCN2C(=O)C(Cc2ccccc2)NC(=O)OCc2ccccc2)OC1(C)C [Compound 41, Z-D-Phe-Pro-BoroPhe-OPinac] | 21% Δ% of NORM |

Molecular target: T1, Xa (Homo sapiens, UniProt P00742)
T1 construct: Plasmin; Xa; Urokinase
T1 sequence (P00742 41-179 limits assumed): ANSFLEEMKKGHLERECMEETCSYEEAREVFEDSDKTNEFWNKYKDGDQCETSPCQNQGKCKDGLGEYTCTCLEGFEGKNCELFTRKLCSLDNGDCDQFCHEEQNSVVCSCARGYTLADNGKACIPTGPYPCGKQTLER
T1 sequence (P00742 235-488 limits assumed): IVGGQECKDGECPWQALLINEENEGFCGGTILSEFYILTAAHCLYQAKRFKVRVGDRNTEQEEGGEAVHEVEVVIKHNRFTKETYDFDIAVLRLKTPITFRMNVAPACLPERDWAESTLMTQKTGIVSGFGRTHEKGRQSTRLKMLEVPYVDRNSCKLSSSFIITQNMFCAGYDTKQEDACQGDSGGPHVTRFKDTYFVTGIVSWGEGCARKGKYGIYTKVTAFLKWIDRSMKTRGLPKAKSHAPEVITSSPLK
Experiment: IC50 against Xa
Assay type: biochemical
Conditions: no incubation (first value of cell); read-out: Xa no inc

| Molecule | IC50 |
| --- | --- |
| COCCCC(NC(=O)[C@@H]1CCCN1C(=O)[C@H](N)Cc1ccccc1)P(=O)(Oc1ccccc1)Oc1ccccc1 (stereo partly drawn) [Compound 40, H-D-Phe-Pro-Mpg^P(OPh)2] | > 20.9 µM |

Same assay, conditions: single value given, incubation not given; read-out: Xa no inc/inc

| Molecule | IC50 |
| --- | --- |
| COCCCC(NC(=O)C1CCCN1C(=O)C(Cc1ccccc1)NC(=O)OCc1ccccc1)B1OC2CC3CC(C3(C)C)C2(C)O1 [Compound 50, Z-D-Phe-Pro-BoroMpg-OPin] | 1.72 µM |
| Bzl-Pros-Pro-BoroIrg-Opin [Compound 44] | 0.512 µM |
| CC1(C)OB(C(Cc2ccccc2)NC(=O)C2CCCN2C(=O)C(Cc2ccccc2)NC(=O)OCc2ccccc2)OC1(C)C [Compound 41, Z-D-Phe-Pro-BoroPhe-OPinac] | 7.94 µM |

Same assay, conditions: with incubation (second value of cell); read-out: Xa inc

| Molecule | IC50 |
| --- | --- |
| COCCCC(NC(=O)[C@@H]1CCCN1C(=O)[C@H](N)Cc1ccccc1)P(=O)(Oc1ccccc1)Oc1ccccc1 (stereo partly drawn) [Compound 40, H-D-Phe-Pro-Mpg^P(OPh)2] | > 20.9 µM |

Molecular target: Urokinase (Homo sapiens, UniProt P00749)
Experiment: IC50 against urokinase
Assay type: biochemical
Conditions: no incubation (first value of cell); read-out: Urokinase no inc

| Molecule | IC50 |
| --- | --- |
| COCCCC(NC(=O)[C@@H]1CCCN1C(=O)[C@H](N)Cc1ccccc1)P(=O)(Oc1ccccc1)Oc1ccccc1 (stereo partly drawn) [Compound 40, H-D-Phe-Pro-Mpg^P(OPh)2] | > 20.9 µM |

Same assay, conditions: single value given, incubation not given; read-out: Urokinase no inc/inc

| Molecule | IC50 |
| --- | --- |
| COCCCC(NC(=O)C1CCCN1C(=O)C(Cc1ccccc1)NC(=O)OCc1ccccc1)B1OC2CC3CC(C3(C)C)C2(C)O1 [Compound 50, Z-D-Phe-Pro-BoroMpg-OPin] | 3.63 µM |
| Bzl-Pros-Pro-BoroIrg-Opin [Compound 44] | 0.121 µM |
| CC1(C)OB(C(Cc2ccccc2)NC(=O)C2CCCN2C(=O)C(Cc2ccccc2)NC(=O)OCc2ccccc2)OC1(C)C [Compound 41, Z-D-Phe-Pro-BoroPhe-OPinac] | 6.67 µM |

Same assay, conditions: with incubation (second value of cell); read-out: Urokinase inc

| Molecule | IC50 |
| --- | --- |
| COCCCC(NC(=O)[C@@H]1CCCN1C(=O)[C@H](N)Cc1ccccc1)P(=O)(Oc1ccccc1)Oc1ccccc1 (stereo partly drawn) [Compound 40, H-D-Phe-Pro-Mpg^P(OPh)2] | > 20.9 µM |

Molecular target: Plasmin (Homo sapiens, UniProt P00747)
Sequence (P00747 97-580 limits assumed, species assumed): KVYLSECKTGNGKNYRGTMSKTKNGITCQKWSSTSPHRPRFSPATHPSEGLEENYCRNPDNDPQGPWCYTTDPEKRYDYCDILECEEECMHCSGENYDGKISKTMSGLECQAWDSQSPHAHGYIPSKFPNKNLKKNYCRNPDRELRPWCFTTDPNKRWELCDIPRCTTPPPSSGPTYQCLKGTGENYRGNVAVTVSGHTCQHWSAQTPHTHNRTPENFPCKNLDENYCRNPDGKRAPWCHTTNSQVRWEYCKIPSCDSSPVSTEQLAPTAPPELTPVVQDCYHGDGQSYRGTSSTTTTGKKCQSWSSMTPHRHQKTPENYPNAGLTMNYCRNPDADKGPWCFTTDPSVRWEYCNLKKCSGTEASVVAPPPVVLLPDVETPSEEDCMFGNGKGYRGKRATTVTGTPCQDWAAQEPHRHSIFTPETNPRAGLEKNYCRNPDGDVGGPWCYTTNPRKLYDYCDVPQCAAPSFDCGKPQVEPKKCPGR
Sequence (P00747 581-810 limits assumed, species assumed): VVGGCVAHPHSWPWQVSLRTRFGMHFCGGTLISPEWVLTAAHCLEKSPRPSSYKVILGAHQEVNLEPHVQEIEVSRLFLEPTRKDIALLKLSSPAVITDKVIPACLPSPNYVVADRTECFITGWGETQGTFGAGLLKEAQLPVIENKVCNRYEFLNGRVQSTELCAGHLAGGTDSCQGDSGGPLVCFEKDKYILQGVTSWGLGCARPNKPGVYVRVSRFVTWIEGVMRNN
Experiment: IC50 against plasmin
Assay type: biochemical
Conditions: no incubation (first value of cell); read-out: Plasmin no inc

| Molecule | IC50 |
| --- | --- |
| COCCCC(NC(=O)[C@@H]1CCCN1C(=O)[C@H](N)Cc1ccccc1)P(=O)(Oc1ccccc1)Oc1ccccc1 (stereo partly drawn) [Compound 40, H-D-Phe-Pro-Mpg^P(OPh)2] | > 20.9 µM |

Same assay, conditions: single value given, incubation not given; read-out: Plasmin no inc/inc

| Molecule | IC50 |
| --- | --- |
| COCCCC(NC(=O)C1CCCN1C(=O)C(Cc1ccccc1)NC(=O)OCc1ccccc1)B1OC2CC3CC(C3(C)C)C2(C)O1 [Compound 50, Z-D-Phe-Pro-BoroMpg-OPin] | 3.23 µM |
| Bzl-Pros-Pro-BoroIrg-Opin [Compound 44] | 0.153 µM |
| CC1(C)OB(C(Cc2ccccc2)NC(=O)C2CCCN2C(=O)C(Cc2ccccc2)NC(=O)OCc2ccccc2)OC1(C)C [Compound 41, Z-D-Phe-Pro-BoroPhe-OPinac] | 37.3 µM |

Molecular target: human α-thrombin (Homo sapiens, UniProt P00734)
Experiment: biochemical
Assay type: biochemical
Conditions: not given
Method: The inhibition of human α-thrombin was determined by the inhibition of the enzyme catalyzed hydrolysis of three different concentrations of the chromogenic substrate S-2238.
200 μl of sample or buffer and 50 μl of S-2238 were incubated at 37° C. for 1 min and 50 μl of human α-thrombin (0.25 NIHu/ml) was added. The initial rate of inhibited and uninhibited reactions were recorded at 405 nm. The increase in optical density was plotted according to the method of Lineweaver and Burke. The Km and apparent Km were determined and Ki was calculated using the relationship: [formula]

| Molecule | Ki |
| --- | --- |
| CCCCCC(NC(=O)C1CCCN1C(=O)C(Cc1ccccc1)NC(=O)OCc1ccccc1)P(=O)(Oc1ccccc1)Oc1ccccc1 [Compound 19, Z-D-Phe-Pro-Pgl^P(OPh)2] | > 31 µM |

Same assay, conditions: read-out: Ki

| Molecule | Ki |
| --- | --- |
| COCCCC(NC(=O)[C@@H]1CCCN1C(=O)[C@H](N)Cc1ccccc1)P(=O)(Oc1ccccc1)Oc1ccccc1 (stereo partly drawn) [Compound 40, H-D-Phe-Pro-Mpg^P(OPh)2] | 0.0188 µM |

Molecular target: not listed separately
Experiment: IC50 with and without incubation (enzyme not given)
Assay type: biochemical
Conditions: no incubation; read-out: IC50 No Incubations

| Molecule | IC50 |
| --- | --- |
| COCCCC(NC(=O)C1CCCN1C(=O)C(Cc1ccccc1)NC(=O)OCc1ccccc1)B1OC2CC3CC(C3(C)C)C2(C)O1 [Compound 50, Z-D-Phe-Pro-BoroMpg-OPin] | 0.0007 µM |
| Bzl-Pros-Pro-BoroIrg-Opin [Compound 44] | 1.3 µM |
| CC1(C)OB(C(Cc2ccccc2)NC(=O)C2CCCN2C(=O)C(Cc2ccccc2)NC(=O)OCc2ccccc2)OC1(C)C [Compound 41, Z-D-Phe-Pro-BoroPhe-OPinac] | 0.0128 µM |
| COCCCC(NC(=O)[C@@H]1CCCN1C(=O)[C@H](N)Cc1ccccc1)P(=O)(Oc1ccccc1)Oc1ccccc1 (stereo partly drawn) [Compound 40, H-D-Phe-Pro-Mpg^P(OPh)2] | 16.6 µM |

Same assay, conditions: with incubation; read-out: IC50 Inc.

| Molecule | IC50 |
| --- | --- |
| COCCCC(NC(=O)[C@@H]1CCCN1C(=O)[C@H](N)Cc1ccccc1)P(=O)(Oc1ccccc1)Oc1ccccc1 (stereo partly drawn) [Compound 40, H-D-Phe-Pro-Mpg^P(OPh)2] | 0.0118 µM |

System: 111indium-labelled platelets
Experiment: Deposition of 111indium-labelled platelets after intravenous dose
Assay type: in vivo, New Zealand white rabbits
Conditions: 4 mg/kg iv. dose
Source text: M. Hero, K. D. Butler, C. […] Peripheral blood pressure was monitored by a pressure sensor in the carotid artery.

| Molecule | PLATELET ACCUMULATION (% OF NORMAL) LEG | PLATELET ACCUMULATION (% OF NORMAL) LUNG |
| --- | --- | --- |
| CC1(C)OB(C(Cc2ccccc2)NC(=O)C2CCCN2C(=O)C(Cc2ccccc2)NC(=O)OCc2ccccc2)OC1(C)C [Compound 41, Z-D-Phe-Pro-BoroPhe-OPinac] | NONE | NONE |

System: Kalhikrein
Experiment: IC50 against kallikrein
Assay type: biochemical
Conditions: no incubation (first value of cell); read-out: Kalhikrein no inc

| Molecule | IC50 |
| --- | --- |
| COCCCC(NC(=O)[C@@H]1CCCN1C(=O)[C@H](N)Cc1ccccc1)P(=O)(Oc1ccccc1)Oc1ccccc1 (stereo partly drawn) [Compound 40, H-D-Phe-Pro-Mpg^P(OPh)2] | > 20.9 µM |

Same assay, conditions: single value given, incubation not given; read-out: Kalhikrein no inc/inc

| Molecule | IC50 |
| --- | --- |
| COCCCC(NC(=O)C1CCCN1C(=O)C(Cc1ccccc1)NC(=O)OCc1ccccc1)B1OC2CC3CC(C3(C)C)C2(C)O1 [Compound 50, Z-D-Phe-Pro-BoroMpg-OPin] | 7.26 µM |
| Bzl-Pros-Pro-BoroIrg-Opin [Compound 44] | 1.08 µM |
| CC1(C)OB(C(Cc2ccccc2)NC(=O)C2CCCN2C(=O)C(Cc2ccccc2)NC(=O)OCc2ccccc2)OC1(C)C [Compound 41, Z-D-Phe-Pro-BoroPhe-OPinac] | 16.7 µM |

Same assay, conditions: with incubation (second value of cell); read-out: Kalhikrein inc

| Molecule | IC50 |
| --- | --- |
| COCCCC(NC(=O)[C@@H]1CCCN1C(=O)[C@H](N)Cc1ccccc1)P(=O)(Oc1ccccc1)Oc1ccccc1 (stereo partly drawn) [Compound 40, H-D-Phe-Pro-Mpg^P(OPh)2] | > 20.9 µM |
